Here are results for one molecule from patent US12276654B2, “Chemical probe-dependent evaluation of protein activity and uses thereof” (The University of Chicago, priority 2017, dated 2025).

The target in assay [1] is T1, NCEH1 (Mus musculus, UniProt Q8BLF1).
T1 construct: Then the mPBMCs were acquired from the mouse blood and subjected to family wide probe treatment; from tissue; host or cells: mouse blood PBMCs (mPBMCs)
T1 sequence (Q8BLF1 1-408): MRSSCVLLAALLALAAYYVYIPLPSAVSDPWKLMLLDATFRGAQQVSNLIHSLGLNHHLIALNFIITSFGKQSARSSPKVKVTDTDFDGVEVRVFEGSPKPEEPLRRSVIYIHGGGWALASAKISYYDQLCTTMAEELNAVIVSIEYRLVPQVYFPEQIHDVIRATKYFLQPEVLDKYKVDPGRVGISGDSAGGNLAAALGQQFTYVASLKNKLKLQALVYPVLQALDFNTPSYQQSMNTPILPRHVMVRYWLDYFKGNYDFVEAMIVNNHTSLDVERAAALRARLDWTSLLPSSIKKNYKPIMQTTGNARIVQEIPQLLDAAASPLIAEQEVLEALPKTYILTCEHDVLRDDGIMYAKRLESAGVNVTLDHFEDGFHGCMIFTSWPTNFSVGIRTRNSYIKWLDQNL
The assay can be described thus: sADPL in vivo target engagement in mPBMCs after oral gavage, NCEH1. The following applies: mice. From the text: (§1) FIG. 25. In vivo Target Engagement. The mice were administrated with vehicle (PEG300) or NCEH1 inhibitor JW480 by oral gavage. Then the mPBMCs were acquired from the mouse blood and subjected to family wide probe treatment to profile the in vivo target engagement.
(§2) Following the in vitro study, in vivo target engagement was planned. In this experiment, the inventors orally gavaged the mice with vehicle or inhibitors, then collected the mPBMCs for probe treatment and sADPL measurement. Again, first the activity of NCEH1 was tested in mice PBMCs, and good activity was found. The delta Ct is over 7 cycles, which is over 100 fold change.

The target of another assay is T2, MGLL (Mus musculus, UniProt O35678).
T2 construct: Then the mPBMCs were acquired from the mouse blood and subjected to family wide probe treatment; from tissue; host or cells: mouse blood PBMCs (mPBMCs)
T2 sequence (O35678 1-303): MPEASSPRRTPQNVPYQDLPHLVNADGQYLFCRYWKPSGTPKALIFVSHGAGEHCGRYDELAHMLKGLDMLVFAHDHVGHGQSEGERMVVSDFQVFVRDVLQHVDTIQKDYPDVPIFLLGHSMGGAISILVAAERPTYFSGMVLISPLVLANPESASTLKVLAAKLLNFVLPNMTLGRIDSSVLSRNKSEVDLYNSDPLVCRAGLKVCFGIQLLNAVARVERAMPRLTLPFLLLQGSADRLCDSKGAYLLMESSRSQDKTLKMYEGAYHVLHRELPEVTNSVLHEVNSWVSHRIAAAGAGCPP
The assay can be described thus: sADPL in vivo target engagement in mPBMCs after oral gavage, off-target MGLL. The following applies: mice, 3 and 80 mg/kg.
Excerpt: as §1, §2

Another assay addresses T3, FAAH (Mus musculus, UniProt O08914).
T3 construct: Then the mPBMCs were acquired from the mouse blood and subjected to family wide probe treatment; from tissue; host or cells: mouse blood PBMCs (mPBMCs)
T3 sequence (O08914 1-579): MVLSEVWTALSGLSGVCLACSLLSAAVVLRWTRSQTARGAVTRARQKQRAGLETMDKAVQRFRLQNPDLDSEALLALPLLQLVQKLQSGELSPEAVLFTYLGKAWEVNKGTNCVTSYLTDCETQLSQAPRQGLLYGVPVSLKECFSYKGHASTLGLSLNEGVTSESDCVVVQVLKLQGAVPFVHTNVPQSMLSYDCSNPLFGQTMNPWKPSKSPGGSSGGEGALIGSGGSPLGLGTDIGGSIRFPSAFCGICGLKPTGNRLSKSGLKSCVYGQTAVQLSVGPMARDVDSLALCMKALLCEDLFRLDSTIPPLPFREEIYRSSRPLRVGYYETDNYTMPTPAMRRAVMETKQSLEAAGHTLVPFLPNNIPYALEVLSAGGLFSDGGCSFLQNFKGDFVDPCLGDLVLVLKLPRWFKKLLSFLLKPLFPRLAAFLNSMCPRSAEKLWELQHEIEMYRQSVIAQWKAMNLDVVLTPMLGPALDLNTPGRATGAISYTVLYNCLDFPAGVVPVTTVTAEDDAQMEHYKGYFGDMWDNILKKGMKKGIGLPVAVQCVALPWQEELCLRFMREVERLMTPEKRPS
The assay is described as follows: sADPL in vivo target engagement in mPBMCs after oral gavage, off-target FAAH. As to conditions: mice, 3 and 80 mg/kg.
Excerpt: as §1, §2

Assay [2] has as its target T4, NCEH1 (Homo sapiens, UniProt Q6PIU2).
T4 sequence (Q6PIU2 1-408): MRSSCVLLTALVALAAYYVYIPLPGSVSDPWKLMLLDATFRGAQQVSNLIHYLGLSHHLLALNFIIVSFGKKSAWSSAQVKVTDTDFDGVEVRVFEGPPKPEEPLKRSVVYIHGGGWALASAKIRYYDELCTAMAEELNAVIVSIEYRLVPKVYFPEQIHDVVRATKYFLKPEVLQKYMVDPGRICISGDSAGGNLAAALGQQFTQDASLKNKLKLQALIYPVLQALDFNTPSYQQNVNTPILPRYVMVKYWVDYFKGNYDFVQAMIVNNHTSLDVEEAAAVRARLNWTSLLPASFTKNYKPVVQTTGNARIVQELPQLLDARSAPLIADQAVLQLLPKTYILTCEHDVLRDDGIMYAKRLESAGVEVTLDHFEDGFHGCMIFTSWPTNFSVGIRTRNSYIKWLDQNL
The assay can be described thus: α-Biotin Western blot gel-based profiling of NCEH1 activity (FP-Bio labeling) in SKOV3 cells. It counts as cell-based. On the set-up: endogenous NCEH1 activity in SKOV3 cells; endogenous in cells; host or cells: SKOV3. As to conditions: 1 μM, 4 hr pre-treatment, equivalent NCEH1 protein levels. The method, then:
Cells were grown in 6-well plates or 6-cm dishes until reaching 80-90% confluence. FP-biotin (FP-Bio, 10 mM stock in DMSO) was diluted to 2 μM in DMEM, and added to cells at 37° C. for 40 minutes. Cells were then washed in PBS, scraped and lysed by sonication using PBS buffer supplemented with protease inhibitor cocktail (Sigma, #92714-1BTL). Protein concentration was determined by BCA assay (Pierce, #23225), lysate was diluted in Laemmli buffer (4×: 200 mM Tris pH 6.8, 400 mM DTT, 8% SDS, 0.4% bromophenol, 40% glycerol), heated to 95° C. for 5 minutes, and resolved on a 4-12% PAGE gel (ThermoFisher, NP0322BOX). PAGE gels were processed for Western blot as indicated above with IR800-conjugated streptavidin (LI-COR, #926-32230) overnight at 4° C. Images were captured by Odyssey CLx imaging system (LI-COR). Quantification of band intensities was performed using ImageJ software (NIH).
For orientation: A western blot detects proteins with antibodies after separation by electrophoresis.

For assay [3], the target named is T4, NCEH1. The assay is described as follows: sADPL target engagement in patient-derived hPBMCs. The assay is classed as cell-based. More on the design: The human peripheral blood mononuclear cells (hPBMCs) were extracted from patient-derived blood samples; endogenous in cells; host or cells: primary human PBMCs from patient blood. As to conditions: hPBMCs from patient-derived blood; inhibitor prior to family-wide probe. The method, then:
FIG. 24. Target Engagement in Patient-derived PBMCs. The human peripheral blood mononuclear cells (hPBMCs) were extracted from patient-derived blood samples. Likewise, hPBMCs were treated with DMSO as the control, with inhibitor prior to family wide probe to pre-block the active site, or with family-wide probe directly. Then sADPL workflow was applied to read out the CT difference.

Entries after “also recorded” stand apart in the source; their conditions may differ.

Turning to `CC(C)c1ccccc1OC(=O)NCCc1ccc2ccccc2c1` [JW480], the “NCEH1 activity in mPBMCs (raw Ct values)” value at NCEH1 [1] (3 mg/kg (partial inhibition) vs vehicle PEG300) is “lower activity”; at NCEH1 [1] (80 mg/kg (complete inhibition) vs vehicle PEG300), “even lower activity”. At MGLL, the “in vivo target engagement of off-target MGLL in mPBMCs” value is listed as “no target engagements were observed”. The “in vivo target engagement of off-target FAAH in mPBMCs” value at FAAH is reported as “no target engagements were observed”. In addition, the “NCEH1 activity by gel-based profiling (FP-Bio labeling)” value on NCEH1 [2] was “significant and selective inhibition of NCEH1 activity; also recorded: specifically inhibits labeling of NCEH1”. Besides, at NCEH1 [3], the “activity in inhibitor competition group by sADPL in hPBMCs” value was “bring the activities down to the levels of DMSO controls”.
